Test results: US10336697B2, “Spiro[cyclobutane-1,3′-indolin]-2′-one derivatives as bromodomain inhibitors” (Orion Corporation, priority 2015, dated 2019)

target: Bet BRD4 full length bromo-domain protein (Homo sapiens, UniProt O60885); assay: Bet bromodomain TR-FRET assay (displacement of acetyl histone peptide); format: binding; details: Bet BRD4 full length bromodomain protein, 300 nM acetyl histone peptide substrate, read-out: IC50

First: CC(Oc1cc(NS(=O)(=O)c2ccc(Cl)cc2F)cc2c1NC(=O)C21CCC1)c1ccccn1 (single isomer, unassigned) [Compound 155, 4-Chloro-2-fluoro-N-(2′-oxo-7′-(1-(pyridin-2-yl)ethoxy)spiro[cyclobutane-1,3′-indolin]-5′-yl)benzenesulfonamide]
Second: COc1ccccc1S(=O)(=O)Nc1cc(OC(C)c2ccccn2)c2c(c1)C1(CCC1)C(=O)N2 (single isomer, unassigned) [Compound 151, 2-Methoxy-N-(2′-oxo-7′-(1-(pyridin-2-yl)ethoxy)spiro[cyclobutane-1,3′-indolin]-5′-yl)benzenesulfonamide]
The IC50 of the first is higher: 600 to 1000 nM for the first, less than 600 nM for the second.

Compared with O=C1Nc2c(OC3CCC(F)(F)CC3)cc(NS(=O)(=O)c3ccc(Cl)cc3F)cc2C12CCC2 [Compound 175, 4-Chloro-N-(7′-((4,4-difluorocyclohexyl)oxy)-2′-oxospiro [cyclobutane-1,3′-indolin]-5′-yl)-2-fluorobenzenesulfonamide], O=C1Nc2c(OC3CCNCC3F)cc(NS(=O)(=O)c3ccc(Cl)cc3F)cc2C12CCC2 (centres unmarked) [compound 198, 4-Chloro-2-fluoro-N-(7′-((3-fluoropiperidin-4-yl)oxy)-2′-oxospiro[cyclobutane-1,3′-indolin]-5′-yl)benzenesulfonamide] is lower in IC50: 600 to 1000 nM for the first, less than 600 nM for the second.

First: COC(=O)c1ccc(S(=O)(=O)Nc2cc(C(=O)NC3CCN(C)CC3)c3c(c2)C2(CCC2)C(=O)N3)c(F)c1 [Compound 80, Methyl 3-fluoro-4-(N-(7′-((1-methylpiperidin-4-yl)carbamoyl)-2′-oxospiro[cyclobutane-1,3′-indolin]-5′-yl)sulfamoyl)benzoate]
Second: CN1CCC(NC(=O)c2cc(NS(=O)(=O)c3ccc(F)cc3F)cc3c2NC(=O)C32CCC2)C1 (centres unmarked) [Compound 52, 5′-(2,4-Difluorophenylsulfonamido)-N-(1-methylpyrrolidin-3-yl)-2′-oxospiro[cyclobutane-1,3′-indoline]-7′-carboxamide]
The IC50 of the first is higher: greater than 1000 nM for the first, less than 600 nM for the second. The second is the more potent here.

First: O=C1CCC(c2cc(NS(=O)(=O)c3ccc(F)cc3F)cc3c2NC(=O)C32CCC2)CN1 (centres unmarked) [Compound 105, 2,4-Difluoro-N-(2′-oxo-7′-(6-oxopiperidin-3-yl)spiro [cyclobutane-1,3′-indolin]-5′-yl)benzenesulfonamide]
Second: O=C(O)c1cc(NS(=O)(=O)c2ccc(F)cc2F)cc2c1NC(=O)C21CCC1 [Compound 42, 5′-((2,4-difluorophenyl)sulfonamido)-2′-oxospiro[cyclobutane-1,3′-indoline]-7′-carboxylic acid]
The IC50 of the first is lower: less than 600 nM for the first, 600 to 1000 nM for the second. The first is the more potent here.

CN1CCCC(Nc2cc(NS(=O)(=O)c3ccc(F)cc3F)cc3c2NC(=O)C32CCC2)C1 (single isomer, unassigned) [Compound 34, 2,4-Difluoro-N-(7′-((1-methylpiperidin-3-yl)amino)-2′-oxospiro[cyclobutane-1,3′-indolin]-5′-yl)benzenesulfonamide] and CN1CCC(CNc2cc(NS(=O)(=O)c3ccc(F)cc3F)cc3c2NC(=O)C32CCC2)CC1 [Compound 32, 2,4-Difluoro-N-(7′-(((1-methylpiperidin-4-yl)methyl)amino)-2′-oxospiro[cyclobutane-1,3′-indolin]-5′-yl)benzenesulfonamide] cannot be ordered by IC50: less than 600 nM for the first, less than 600 nM for the second.

First: CN1CCC(CCNc2cc(NS(=O)(=O)c3ccc(F)cc3F)cc3c2NC(=O)C32CCC2)CC1 [Compound 28, 2,4-Difluoro-N-(7′-((2-(1-methylpiperidin-4-yl)ethyl)amino)-2′-oxospiro[cyclobutane-1,3′-indolin]-5′-yl)benzenesulfonamide]
Second: CN1CCC(C(=O)Nc2cc(NS(=O)(=O)c3ccc(F)cc3F)cc3c2NC(=O)C32CCC2)CC1 [Compound 43, N-(5′-((2,4-difluorophenyl)sulfonamido)-2′-oxospiro[cyclobutane-1,3′-indolin]-yl)-1-methylpiperidine-4-carboxamide]
The IC50 of the first is lower: less than 600 nM for the first, 600 to 1000 nM for the second.

C=CCCNc1cc(NS(=O)(=O)c2ccccc2OC)cc2c1NC(=O)C21CCC1 [Compound 14, N-(7′-(but-3-en-1-ylamino)-2′-oxospiro[cyclobutane-1,3′-indolin]-5′-yl)-2-methoxybenzenesulfonamide] and COc1ccccc1S(=O)(=O)Nc1cc(NC2CCN(C)CC2)c2c(c1)C1(CCC1)C(=O)N2 [Compound 39, 2-Methoxy-N-(7′-((1-methylpiperidin-4-yl)amino)-2′-oxospiro[cyclobutane-1,3′-indolin]-5′-yl)benzenesulfonamide] cannot be ordered by IC50: less than 600 nM for the first, less than 600 nM for the second.

O=C1Nc2c(-c3ccnc(O)c3)cc(NS(=O)(=O)c3ccc(F)cc3F)cc2C12CCC2 [Compound 100, 2,4-difluoro-N-(7′-(2-hydroxypyridin-4-yl)-2′-oxospiro[cyclobutane-1,3′-indolin]-5′-yl)benzenesulfonamide] and O=C(Nc1cc(NS(=O)(=O)c2ccc(F)cc2F)cc2c1NC(=O)C21CCC1)c1ccncc1 [Compound 45, N-(5′-(2,4-Difluorophenylsulfonamido)-2′-oxospiro[cyclobutane-1,3′-indolin]-7′-yl)isonicotinamide] cannot be ordered by IC50: greater than 1000 nM for the first, greater than 1000 nM for the second.

CC(Oc1cc(NS(=O)(=O)c2ccc(Cl)cc2F)cc2c1NC(=O)C21CCC1)c1ccccn1 (single isomer, unassigned) [Compound 156, 4-Chloro-2-fluoro-N-(2′-oxo-7′-(1-(pyridin-2-yl)ethoxy)spiro[cyclobutane-1,3′-indolin]-5′-yl)benzenesulfonamide] and COc1ccc(S(=O)(=O)Nc2cc(Cc3ccccc3)c3c(c2)C2(CCC2)C(=O)N3)c(F)c1 [Compound 93, N-(7′-benzyl-2′-oxospiro[cyclobutane-1,3′-indolin]-5′-yl)-2-fluoro-4-methoxybenzenesulfonamide] cannot be ordered by IC50: less than 600 nM for the first, less than 600 nM for the second.

Compared with CN1CCC(NC(=O)c2cc(NS(=O)(=O)C3CCCCC3)cc3c2NC(=O)C32CCC2)CC1 [Compound 83, 5′-(Cyclohexanesulfonamido)-N-(1-methylpiperidin-4-yl)-2′-oxospiro[cyclobutane-1,3′-indoline]-7′-carboxamide], COc1ccccc1S(=O)(=O)Nc1cc(OC2CCCN(C)CC2)c2c(c1)C1(CCC1)C(=O)N2 (centres unmarked) [Compound 140, 2-Methoxy-N-(7′-((1-methylazepan-4-yl)oxy)-2′-oxospiro[cyclobutane-1,3′-indolin]-5′-yl)benzenesulfonamide] is lower in IC50: 600 to 1000 nM for the first, less than 600 nM for the second.

CCN(CC)CCOc1cc(NS(=O)(=O)c2ccccc2OC)cc2c1NC(=O)C21CCC1 [Compound 165, N-(7′-(2-(diethylamino)ethoxy)-2′-oxospiro[cyclobutane-1,3′-indolin]-5′-yl)-2-methoxybenzenesulfonamide] and COc1ccccc1S(=O)(=O)Nc1cc(OC(C)CN(C)C)c2c(c1)C1(CCC1)C(=O)N2 (centres unmarked) [Compound 166, N-(7′-((1-(dimethylamino)propan-2-yl)oxy)-2′-oxospiro[cyclobutane-1,3′-indolin]-5′-yl)-2-methoxybenzenesulfonamide] cannot be ordered by IC50: less than 600 nM for the first, less than 600 nM for the second.

First: CN1CCCC(Nc2cc(NS(=O)(=O)c3ccc(F)cc3F)cc3c2NC(=O)C32CCC2)C1 (single isomer, unassigned) [Compound 35, 2,4-Difluoro-N-(7′-((1-methylpiperidin-3-yl)amino)-2′-oxospiro[cyclobutane-1,3′-indolin]-5′-yl)benzenesulfonamide]
Second: CC(C)(C)OC(=O)N1CCC(Nc2cc(NS(=O)(=O)c3ccc(F)cc3F)cc3c2NC(=O)C32CCC2)C(F)C1 (centres unmarked) [Compound 37, tert-Butyl 4-((5′-(2,4-difluorophenylsulfonamido)-2′-oxospiro[cyclobutane-1,3′-indolin]-7′-yl)amino)-3-fluoro piperidine-1-carboxylate]
The IC50 of the first is lower: 600 to 1000 nM for the first, greater than 1000 nM for the second.

COc1ccc(S(=O)(=O)Nc2cc(C3CCNCC3)c3c(c2)C2(CCC2)C(=O)N3)c(OC)c1 [Compound 92, 2,4-Dimethoxy-N-(2′-oxo-7′-(piperidin-4-yl)spiro[cyclobutane-1,3′-indolin]-5′-yl)benzenesulfonamide] and COc1ccccc1S(=O)(=O)Nc1cc(OC2CCOCC2)c2c(c1)C1(CCC1)C(=O)N2 [Compound 141, 2-Methoxy-N-(2′-oxo-7′-((tetrahydro-2H-pyran-4-yl)oxy)spiro[cyclobutane-1,3′-indolin]-5′-yl)benzenesulfonamide] cannot be ordered by IC50: less than 600 nM for the first, less than 600 nM for the second.

First: COc1ccccc1S(=O)(=O)Nc1cc(Cc2cccnc2)c2c(c1)C1(CCC1)C(=O)N2 [Compound 87, 2-Methoxy-N-(2′-oxo-7′-(pyridin-3-ylmethyl)spiro[cyclobutane-1,3′-indolin]-5′-yl)benzenesulfonamide]
Second: COc1ccccc1S(=O)(=O)Nc1cc(C(C)c2ccccc2)c2c(c1)C1(CCC1)C(=O)N2 (single isomer, unassigned) [Compound 115, 2-Methoxy-N-(2′-oxo-7′-(1-phenylethyl)spiro [cyclobutane-1,3′-indolin]-5′-yl)benzenesulfonamide]
The IC50 of the first is lower: less than 600 nM for the first, 600 to 1000 nM for the second. The first is the more potent here.

COc1ccccc1S(=O)(=O)Nc1cc(C(C)c2ccccc2)c2c(c1)C1(CCC1)C(=O)N2 (single isomer, unassigned) [Compound 114, 2-Methoxy-N-(2′-oxo-7′-(1-phenylethyl)spiro [cyclobutane-1,3′-indolin]-5′-yl)benzenesulfonamide] and COc1ccccc1S(=O)(=O)Nc1cc(OC(=O)N2CCOCC2)c2c(c1)C1(CCC1)C(=O)N2 [Compound 170, 5′-((2-Methoxyphenyl)sulfonamido)-2′-oxospiro[cyclobutane-1,3′-indolin]-7′-yl morpholine-4-carboxylate] cannot be ordered by IC50: less than 600 nM for the first, less than 600 nM for the second.

Going from CC1CC(Oc2cc(NS(=O)(=O)c3ccc(Cl)cc3F)cc3c2NC(=O)C32CCC2)CC(C)N1C (centres unmarked) [compound 195, 4-Chloro-2-fluoro-N-(2′-oxo-7′-((1,2,6-trimethylpiperidin-4-yl)oxy)spiro[cyclobutane-1,3′-indolin]-5′-yl)benzenesulfonamide] to O=C1Nc2c(NC3CCc4cc(F)ccc43)cc(NS(=O)(=O)c3ccc(F)cc3F)cc2C12CCC2 (centres unmarked) [Compound 26, 2,4-Difluoro-N-(7′-((5-fluoro-2,3-dihydro-1H-inden-1-yl)amino)-2′-oxospiro[cyclobutane-1,3′-indolin]-5′-yl)benzenesulfonamide], the IC50 rises from less than 600 nM to greater than 1000 nM.
